According to US9682126B2, “Postprandial gastrokinetic agent” (ZERIA PHARMACEUTICAL CO., LTD., priority 2013, dated 2017):

Tests used:
[1] = test system: Suncus murinus; assay: Postprandial gastric motility, force transducer on stomach, motility index MI (Example 1); assay type: in vivo; conditions: motilin 300 ng/kg iv after 10-min feed intake
Protocol: Effects of administration of each of ghrelin and motilin and co-administration of ghrelin and motilin on postprandial gastric motility in Suncus murinus were studied. Each of Suncus motilin (Scrum Inc., Tokyo, Japan) and human ghrelin (Asubio Pharma Co., Ltd., Hyogo, Japan) was dissolved in phosphate buffered saline (PBS) containing 0.1% bovine serum albumin. Suncus murinus (male, outbred KAT strain, 8 to 9 weeks old, 73 to 90 g) was used for the experiment. Each animal was bred in a plastic cage provided with an empty can as a nest box under the following conditions: temperature at 23±2° C., illumination between 8:00 and 20:00, and free intake of commercial trout feed (SP, Nippon Formula Feed Mfg Co., Ltd., Yokohama, Japan). After 3 hours of fasting, Suncus murinus was anesthetized by an intraperitoneal injection of pentobarbital sodium (50 mg/kg). Through a midline incision, the stomach was exposed outside the body, and a force transducer was fixed via suture in the circular muscle direction of the body of stomach. […] Amplified analog signals were converted into digital signals by an analog-to-digital converter (ADC-20, Pico Technology Ltd, St Neots, UK), and the digital signals were recorded on a computer. […] Gastric motility was quantitated using a motility index (MI). A motility index (MI) based on a drug was calculated using the following equation. […]

[2] = test system: subjects; conditions: motilin continuously administered intravenously to fasting subjects; cited from earlier work
[3] = test system: Suncus murinus; assay: Gastric motility in postprandial period, sham-operated vs vagotomized (Example 2); assay type: in vivo
Protocol: Each of Suncus motilin (Scrum Inc., Tokyo, Japan) and human ghrelin (Asubio Pharma Co., Ltd., Hyogo, Japan) were dissolved in PBS containing 0.1% bovine serum albumin. Suncus murinus (male, outbred KAT strain, 7 to 15 weeks old, 60 to 100 g) was used for the experiment. Each animal was bred in a plastic cage provided with an empty can as a nest box under the following conditions: temperature at 23±2° C., illumination between 8:00 and 20:00, and free intake of commercial trout feed (SP, Nippon Formula Feed Mfg Co., Ltd., Yokohama, Japan). After 3 hours of fasting, Suncus murinus was anesthetized by an intraperitoneal injection of pentobarbital sodium (50 mg/kg). Through a midline incision, the stomach was exposed outside the body, and a force transducer was fixed via suture in the circular muscle direction of the body of stomach. The wire extending from the force transducer was inserted through the abdominal wall, passed under the skin, and exposed at the back of the neck. Thereafter, truncal vagotomy was performed. A lower portion of the esophagus was exposed, both branches of the vagus nerve were isolated, and about 3 mm of the vagus nerve was excised above the hepatic branch and the celiac branch. For sham-operated Suncus murinus, the vagus nerve was exposed, but not excised. An intravenous catheter was inserted in the right jugular, and extracorporeally fixed to the back. The catheter was filled with heparinized saline (100 units/mL) to prevent clotting. From 2 days after the operation, the gastric motility was recorded. 1 g of feed was given to the Suncus murinus during phase I to observe postprandial contractions. Motilin was continuously injected at 50 ng/kg/min over 10 minutes 20 minutes after completion of intake of feed. Amplified analog signals were converted into digital signals by an analog-to-digital converter (ADC-20, Pico Technology Ltd, St Neots, UK), and the digital signals were recorded on a computer. […] Gastric motility was quantitated using a motility index (MI). A motility index (MI) based on a drug was calculated using the following equation. […]

For `CC[C@H](C)[C@H](NC(=O)[C@@H]1CCCN1C(=O)[C@@H](NC(=O)[C@@H](N)Cc1ccccc1)C(C)C)C(=O)N[C@@H](Cc1ccccc1)C(=O)N[C@H](C(=O)N[C@@H](Cc1ccc(O)cc1)C(=O)NCC(=O)N[C@@H](CCC(=O)O)C(=O)N[C@@H](CC(C)C)C(=O)N[C@@H](CCC(N)=O)C(=O)N[C@@H](CCCNC(=N)N)C(=O)N[C@@H](CCSC)C(=O)N[C@@H](CCC(N)=O)C(=O)N[C@@H](CCC(=O)O)C(=O)N[C@@H](CCCCN)C(=O)N[C@@H](CCC(=O)O)C(=O)N[C@@H](CCCNC(=N)N)C(=O)N[C@@H](CC(N)=O)C(=O)N[C@@H](CCCCN)C(=O)NCC(=O)N[C@@H](CCC(N)=O)C(=O)O)[C@@H](C)O` [motilin], the “contractions of the body of the stomach” value [1] is given as “did not induce contractions of the body of the stomach”, the gastric emptying [2] is given as “accelerate gastric emptying” and the “MI of postprandial motilin-induced contractions, vagotomized compared with sham-operated” value ([3]; motilin 50 ng/kg/min after intake of feed) is given as “significantly higher”. The “phase III-like contractions” value ([3]; sham-operated, after intake of feed, motilin 50 ng/kg/min, 10-minute administration) was “did not induce phase III-like contractions” and the “phase III contractions” value ([3]; vagotomized, after intake of feed, motilin 50 ng/kg/min, 10-minute administration) was “induced strong phase III contractions”.
